Reference: the NIST ThermoML archive (doi:10.1021/je049907t)
Numbers after ± are expanded uncertainties.

Legend:
[1] = for Normal melting temperature: Crystal 1, visual observation
[2] = Molar enthalpy of transition or fusion; conditions: Crystal

Structure (SMILES) | Normal melting temperature [1] | Molar enthalpy of transition or fusion [2] | Triple point temperature ([1]; Crystal)
Cc1nc2ccccc2[nH]1 [2-methylbenzimidazole] | 178.28 ± 0.5 °C |  | 
c1ccc2[nH]cnc2c1 [benzimidazole] | 172.36 ± 0.5 °C |  | 
c1ccc(-c2nc[nH]c2-c2ccccc2)cc1 [4,5-diphenylimidazole] |  | 8.17 ± 0.454 kcal/mol | 504.84 ± 1 K
Cc1ncc[nH]1 [2-methylimidazole] | 146 ± 0.5 °C |  | 
